Each compound was assayed on OVCAR3 cells (assay: Inhibition of proliferation of OVCAR-3 cells (Cell-Titer Glo)). Settings: Homo sapiens, OVCAR-3, 72 h, 3 days, 1000 cells/well.
Format: cell-based
Text: Test Example 2. Test on Inhibition of Proliferation of OVCAR-3 Cells by Compounds of Present Disclosure
Cell and material: The human ovarian cancer cell line OVCAR3 was purchased from ATCC (Cat. No. HTB-161™), RPMI 1640 medium (Gibco #A1049101), penicillin-streptomycin (Gibco #15140122), and 0.25% Trypsin-EDTA (Gibco #25200056) were purchased from Gibco (U.S.), bovine insulin (Yeasen #40107ES60) was purchased from Yeasen, 384-well plates (Corning #CLS3765) was purchased from Corning (U.S.), and Cell-Titer Glo reagent (Promega #G7568) was purchased from Promega (U.S.).
Cell culture: OVCAR3 cells were cultured in RPMI 1640 complete medium (RPMI 1640 medium containing 20% fetal bovine serum, […] bovine insulin, and 1% penicillin-streptomycin) in an incubator (37 °C, 5% CO2), and the cells could be used in experiments when in the logarithmic growth phase.
Cell proliferation activity test: The Cell-Titer Glo reagent was used to test the compound for inhibition of proliferation of the OVCAR3 cell strain. The compound formulated with DMSO and pure DMSO (control) were each added to a 384-well plate using an Echo instrument; the compound was subjected to 3-fold serial dilution starting from 30 μM to obtain 11 concentration points, and the volume of the compound or DMSO added was 100 nL.
OVCAR3 cells were digested and resuspended in RPMI 1640 complete medium, and the suspension was added to a 384-well plate (1000 cells/50 μL/well) to be well mixed with the compound. The mixture was incubated in an incubator (37 °C, 5% CO2) for 3 days. The Cell-Titer Glo reagent was added at 25 µL/well, and the resulting mixture was well mixed by shaking and then incubated for 10 min. The Cell-Titer Glo readings were measured with a Multimode Plate Reader (brand: PerkinElmer; model: SIC-PV-018).
A negative control group (Bottom) was set, and the negative control group was medium wells with 0.2% DMSO added and was defined as 100% proliferation inhibition; the positive control group (Top) was OVCAR3 cell wells with 0.2% DMSO added.
The percent proliferation inhibition (% Inhibition) was calculated, and the curves were fit using the four-parameter equation, Y=Bottom+(Top−Bottom)/(1+(IC50/X)^HillSlope), to obtain the proliferation inhibition IC50 of the compound. • Percent inhibition: % Inhibition=(1−(Signal−Bottom)/(Top−Bottom))×100%. • Signal: Cell-Titer Glo reading of wells with compound added; • Bottom: Cell-Titer Glo reading of negative control wells; • Top: Cell-Titer Glo reading of positive control wells.

Compound | IC50 [nM]
CC1(C)Cc2cc(NC(=O)c3ccc(NS(=O)(=O)CCO)cc3N3CCC4(CC3)CC4)cc(N3CCC(F)(F)CC3)c2O1 [Compound 82] | 99.3
O=C(Nc1cccc2c1nc1n2C2COC1C2)c1ccc(NS(=O)(=O)CCO)cc1N1CCC2(CC1)CC2 (centres unmarked) [Compound 83] | 86
O=C(Nc1cccc2c1nc1n2CC2C1C2(F)F)c1ccc(NS(=O)(=O)CCO)cc1N1CCC2(CC1)CC2 (centres unmarked) [Compound 86] | 6.5
CC1(C)Cn2c(nc3c(NC(=O)c4ccc(NS(=O)(=O)CCO)cc4N4CCC5(CC4)CC5)cccc32)CO1 [Compound 87] | 31
O=C(Nc1cccc2c1nc1n2CC2CC1C2(F)F)c1ccc(NS(=O)(=O)CCO)cc1N1CCC2(CC1)CC2 (centres unmarked) [Compound 88] | 98
N#Cc1ccc(NC(=O)c2ccc(NS(=O)(=O)CCO)cc2N2CCC3(CC2)CC3)c2nc3n(c12)CC1CC31 (centres unmarked) [Compound 92] | 48.4
COc1ccc(NC(=O)c2ccc(NS(=O)(=O)CCO)cc2N2CCC3(CC2)CC3)c2nc3n(c12)CCCCC3 [Compound 96] | 25
O=C(Nc1cc2c(c(N3CCC(F)(F)CC3)c1)COC2)c1ccc(NS(=O)(=O)CCO)cc1N1CCC2(CC1)CC2 [Compound 101] | 9.1
O=C(Nc1cc2c(c(N3CCC(F)(F)CC3)c1)CC2)c1ccc(NS(=O)(=O)CCO)cc1N1CCC2(CC1)CC2 [Compound 103] | 14.7
CS(=O)(=O)Nc1ccc(C(=O)Nc2cn3ccnc3c(N3CCC(F)(F)CC3)n2)c(N2CCC3(CC2)CC3)c1 [Compound 105] | 14.9
O=C(Nc1cc2ccoc2c(N2CCC(F)(F)CC2)n1)c1ccc(NS(=O)(=O)CCO)cc1N1CCC2(CC1)CC2 [Compound 106] | 15.7
O=C(Nc1cccc2c3c(nn12)C1CC1C3)c1ccc(NS(=O)(=O)CCO)cc1N1CCC2(CC1)CC2 (centres unmarked) [Compound 107] | 99.3
O=C(Nc1cc2ccnn2c(N2CCC(F)(F)CC2)n1)c1ccc(NS(=O)(=O)CCO)cc1N1CCC2(CC1)CC2 [Compound 109] | 37.4
N#Cc1ccc(NC(=O)c2ccc(NS(=O)(=O)CCO)cc2N2CCC3(CC2)CC3)c2nc3n(c12)CC1C3C1(F)F (centres unmarked) [Compound 110] | 11.2
COC(=O)c1ccc(NC(=O)c2ccc(NS(=O)(=O)CCO)cc2N2CCC3(CC2)CC3)c2nc3n(c12)CCCCC3 [Compound 112] | 15.3
CCNC(=O)c1ccc(NC(=O)c2ccc(NS(=O)(=O)CCO)cc2N2CCC3(CC2)CC3)c2nc3n(c12)CCCCC3 [Compound 113] | 5.32

These compounds were tested against T1, Human KIF18A (1-376aa) (Homo sapiens, UniProt Q8NI77) (assay: KIF18A enzyme activity assay (ADP-Glo)). Settings: microtubule 50 μg/mL, ATP (Km 70 μM), room temperature, 15 min, read-out: KIF18A inhibitory activity IC50.
T1 construct: Human KIF18A (1-376aa) protease used in the experiments; purchased Shanghai Panchao Biotechnology Co., Ltd
T1 sequence (Q8NI77 1-376): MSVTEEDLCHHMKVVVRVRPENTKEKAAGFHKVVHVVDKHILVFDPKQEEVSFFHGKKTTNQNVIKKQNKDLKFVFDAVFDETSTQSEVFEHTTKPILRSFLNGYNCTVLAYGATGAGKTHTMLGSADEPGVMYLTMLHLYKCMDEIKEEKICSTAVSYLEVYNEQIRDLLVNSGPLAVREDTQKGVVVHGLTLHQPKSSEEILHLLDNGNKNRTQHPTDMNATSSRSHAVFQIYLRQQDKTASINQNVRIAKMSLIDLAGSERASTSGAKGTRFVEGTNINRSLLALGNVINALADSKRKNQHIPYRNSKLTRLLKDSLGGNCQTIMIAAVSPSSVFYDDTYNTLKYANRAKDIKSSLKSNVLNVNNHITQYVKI
Format: biochemical
Method: Test Example 1: KIF18A Enzyme Activity Assay
Based on the ADP-Glo™ Kinase Assay, the ADP amount generated in the reaction was detected to reflect the enzyme activity of KIF18A.
Human KIF18A (1-376aa) […] used in the experiments, expressed by Shanghai Panchao Biotechnology Co., Ltd., was stored at −80 °C (no more than 5 freeze-thaw cycles).
The assay kit (ADP-Glo™ Kinase Assay) was purchased from Promega (Cat. No. V9101) and stored at −30 °C. The kit detects the enzyme activity by measuring ADP generated in enzyme reaction. The KIF18A enzyme and ATP generate ADP. The remaining ATP in this reaction is consumed by the ADP-Glo reagent, while the ADP generated by the KIF18A enzyme reaction is converted back to ATP by the assay reagent. The ATP then reacts with luciferin in the presence of Ultra-Glo™ luciferase, producing luminescence. The luminescent signal is positively correlated with the activity of the KIF18A enzyme.
Compounds were each subjected to 3-fold serial dilution starting from 10 μM to obtain 10 concentration points. The compounds and pure DMSO (control) were pipetted into wells of a 384-well plate using an Echo instrument, and the total volume of compound and DMSO was 100 nL; sample concentrations of gradient dilution were obtained by the instrument based on different ratios. Preparation of a KIF18A enzyme reaction buffer: […], 10 mM MgCl2, 0.01% Pluronic F-68, 1 μM Taxol, and 50 μg/mL Microtubule. KIF18A and the enzyme reaction buffer were mixed, and then the mixed solution was added to the 384-well plate and incubated at room temperature for 15 min. ATP (Km 70 μM) was then added to the mixed solution, and the mixed solution was incubated at room temperature for 15 min. 10 μL of ADP-Glo™ Reagent was well mixed with 10 μL of the mixed solution, and the mixture was incubated at room temperature for 40 min. Finally, 20 μL of ADP-Glo™ Detection Reagent was added, and the mixture was incubated at room temperature for 30 min. The chemiluminescent signal in each well was measured using an Envision plate reader (PerkinElmer, emission wavelength: 400-700 nm). In the experiment, 1 column of wells with no compound and no enzyme (chemiluminescence value was taken as [RLU]background) and 1 column of wells with enzyme but no compound (chemiluminescence value was taken as [RLU]enzyme) were provided. The chemiluminescence value of the compound adding group was taken as [RLU]cpd. The inhibition rate of the compound on […] was calculated according to the following equation: inhibition rate (%)=([RLU]enzyme−[RLU]cpd)/([RLU]enzyme−[RLU]background)×100%, and the inhibitory activity IC50 value of the compound on the enzyme activity was calculated using a four-parameter Logistic Model method. In the following equation, x represents the logarithmic form of the concentration of compound, and f (x) represents an effect value (inhibition rate of enzyme activity at the concentration): F(x)=(A+((B−A)/(1+((C/x)^D)))). A. B, C, and D are four parameters.

Compound | IC50 [nM]
CC1(C)Cc2cc(NC(=O)c3ccc(NS(=O)(=O)CCO)cc3N3CCC4(CC3)CC4)cc(N3CCC(F)(F)CC3)c2O1 [Compound 82] | < 200
O=C(Nc1cccc2c1nc1n2C2COC1C2)c1ccc(NS(=O)(=O)CCO)cc1N1CCC2(CC1)CC2 (centres unmarked) [Compound 83] | < 500
O=C(Nc1cccc2c1nc1n2CC2C1C2(F)F)c1ccc(NS(=O)(=O)CCO)cc1N1CCC2(CC1)CC2 (centres unmarked) [Compound 86] | < 200
CC1(C)Cn2c(nc3c(NC(=O)c4ccc(NS(=O)(=O)CCO)cc4N4CCC5(CC4)CC5)cccc32)CO1 [Compound 87] | < 200
O=C(Nc1cccc2c1nc1n2CC2CC1C2(F)F)c1ccc(NS(=O)(=O)CCO)cc1N1CCC2(CC1)CC2 (centres unmarked) [Compound 88] | < 200
N#Cc1ccc(NC(=O)c2ccc(NS(=O)(=O)CCO)cc2N2CCC3(CC2)CC3)c2nc3n(c12)CC1CC31 (centres unmarked) [Compound 92] | < 200
COc1ccc(NC(=O)c2ccc(NS(=O)(=O)CCO)cc2N2CCC3(CC2)CC3)c2nc3n(c12)CCCCC3 [Compound 96] | < 200
O=C(Nc1cc2c(c(N3CCC(F)(F)CC3)c1)COC2)c1ccc(NS(=O)(=O)CCO)cc1N1CCC2(CC1)CC2 [Compound 101] | < 200
O=C(Nc1cc2c(c(N3CCC(F)(F)CC3)c1)CC2)c1ccc(NS(=O)(=O)CCO)cc1N1CCC2(CC1)CC2 [Compound 103] | < 200
CS(=O)(=O)Nc1ccc(C(=O)Nc2cn3ccnc3c(N3CCC(F)(F)CC3)n2)c(N2CCC3(CC2)CC3)c1 [Compound 105] | < 200
O=C(Nc1cc2ccoc2c(N2CCC(F)(F)CC2)n1)c1ccc(NS(=O)(=O)CCO)cc1N1CCC2(CC1)CC2 [Compound 106] | < 200
O=C(Nc1cccc2c3c(nn12)C1CC1C3)c1ccc(NS(=O)(=O)CCO)cc1N1CCC2(CC1)CC2 (centres unmarked) [Compound 107] | < 200
O=C(Nc1cc2ccnn2c(N2CCC(F)(F)CC2)n1)c1ccc(NS(=O)(=O)CCO)cc1N1CCC2(CC1)CC2 [Compound 109] | < 200
N#Cc1ccc(NC(=O)c2ccc(NS(=O)(=O)CCO)cc2N2CCC3(CC2)CC3)c2nc3n(c12)CC1C3C1(F)F (centres unmarked) [Compound 110] | < 200
COC(=O)c1ccc(NC(=O)c2ccc(NS(=O)(=O)CCO)cc2N2CCC3(CC2)CC3)c2nc3n(c12)CCCCC3 [Compound 112] | < 200
CCNC(=O)c1ccc(NC(=O)c2ccc(NS(=O)(=O)CCO)cc2N2CCC3(CC2)CC3)c2nc3n(c12)CCCCC3 [Compound 113] | < 200
